# In US11478461B2, “[1.1.1] bicyclo compounds as indoleamine 2,3-dioxygenase inhibitors” (Merck Sharp & Dohme Corp., priority 2018, dated 2022):
# Molecular target: IDO1 (Homo sapiens, UniProt P14902)
# Test: IDO1 Cellular Assay in Hela Cells Stimulated with IFNγ
# Type: cell-based
# Settings: IFNγ 100 ng/mL, 300 uM L-tryptophan, about 48 hours, fluorescence readout, read-out: IDO1 HELA Cell Assay, IC50
# In short: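 HeLa cells stimulated with 100 ng/mL IFNγ, supplemented with 300 uM L-tryptophan, incubated 48 h at 37° C with ten 3-fold compound dilutions. Unstimulated cells served as Max-E control. Kynurenine detected by fluorescence (ex 400/em 510 nm) after overnight methyl isonipecotate reaction; IC50 by four-parameter logistic fit.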
# Sequence of IDO1 (P14902 whole entry): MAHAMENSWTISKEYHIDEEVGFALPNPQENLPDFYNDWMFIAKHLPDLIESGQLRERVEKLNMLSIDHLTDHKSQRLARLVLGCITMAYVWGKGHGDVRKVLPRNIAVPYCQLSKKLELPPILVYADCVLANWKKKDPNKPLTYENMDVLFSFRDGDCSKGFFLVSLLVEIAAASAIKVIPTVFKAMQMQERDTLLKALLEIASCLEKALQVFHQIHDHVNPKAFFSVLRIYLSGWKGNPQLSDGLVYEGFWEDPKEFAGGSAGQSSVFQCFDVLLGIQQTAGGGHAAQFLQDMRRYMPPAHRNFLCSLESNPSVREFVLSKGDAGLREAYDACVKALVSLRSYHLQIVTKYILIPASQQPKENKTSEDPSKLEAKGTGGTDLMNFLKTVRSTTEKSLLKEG
row,SMILES,IC50 [nM]
1,"C[C@H](C(=O)Nc1ccc(F)cc1)C12CC(NC(=O)c3ccc4ccccc4c3)(C1)C2 [Example 148, (S)-N-(3-(1-((4-fluorophenyl)amino)-1-oxopropan-2-yl)bicyclo[1.1.1]pentan-1-yl)-2-naphthamide]",19.7
2,"CC(NC(=O)c1ccc(F)cc1)C12CC(NC(=O)c3ccc(Cl)c(Cl)c3)(C1)C2 (single isomer, unassigned) [Example 21, 3,4-Dichloro-N-(3-(1-(4-fluorobenzamido)ethyl)bicyclo [1.1.1]pentan-1-yl) Benzamide]",908
3,"CC(C(=O)Nc1ccc(F)cc1)C12CC(NC(=O)c3cccc4cncn34)(C1)C2 (centres unmarked) [Example 111, N-[3-[2-(4-fluoroanilino)-1-methyl-2-oxo-ethyl]-1-bicyclo[1.1.1]pentanyl]imidazo[1,5-a]pyridin-2-ium-5-carboxamide]",34.2
4,"CC(C)(NC(=O)c1ccc(F)cc1)C12CC(NC(=O)c3ccc(Cl)c(Cl)c3)(C1)C2 [Example 103, 3,4-Dichloro-N-(3-(2-(4-fluorobenzamido)propan-2-yl)bicyclo[1.1.1]pentan-1-yl)benzamide]",46.9
5,"CC(C(=O)Nc1ccc(F)cc1)C12CC(NC(=O)c3ccccn3)(C1)C2 (centres unmarked) [Example 129, N-[3-[2-(4-fluoroanilino)-1-methyl-2-oxo-ethyl]-1-bicyclo[1.1.1]pentanyl]pyridin-1-ium-2-carboxamide]",232
6,"CC(C(=O)Nc1ccc(F)cc1)C12CC(NC(=O)c3cnnc4ccccc34)(C1)C2 (centres unmarked) [Example 135, N-[3-[2-(4-fluoroanilino)-1-methyl-2-oxo-ethyl]-1-bicyclo[1.1.1]pentanyl]cinnoline-4-carboxamide]",276
7,"Cc1nc(C(=O)NC23CC(C(C)C(=O)Nc4ccc(F)cc4)(C2)C3)cs1 (centres unmarked) [Example 123, N-[3-[2-(4-fluoroanilino)-1-methyl-2-oxo-ethyl]-1-bicyclo[1.1.1]pentanyl]-2-methyl-thiazole-4-carboxamide]",147
8,"CCOc1cccc(C(=O)NC23CC(C(C)C(=O)Nc4ccc(F)cc4)(C2)C3)n1 (centres unmarked) [Example 138, 6-ethoxy-N-[3-[2-(4-fluoroanilino)-1-methyl-2-oxo-ethyl]-1-bicyclo[1.1.1]pentanyl]pyridin-1-ium-2-carboxamide]",388
9,"C[C@H](C(=O)Nc1ccc(F)cc1)C12CC(NC(=O)c3ccc(Cl)c(F)c3)(C1)C2 [Example 47, 4-chloro-3-fluoro-N-[3-[(1S)-2-(4-fluoroanilino)-1-methyl-2-oxo-ethyl]-1-bicyclo[1.1.1]pentanyl]benzamide]",152
10,"C[C@H](C(=O)Nc1ccc(F)cc1)C12CC(NC(=O)c3ccc(C(F)(F)F)nc3)(C1)C2 [Example 146, (S)-N-(3-(1-((4-fluorophenyl)amino)-1-oxopropan-2-yl)bicyclo[1.1.1]pentan-1-yl)-6-(trifluoromethyl)nicotinamide]",218
11,"C[C@H](C(=O)Nc1ccc(F)cc1)C12CC(NC(=O)c3cccc(C(F)(F)F)n3)(C1)C2 [Example 152, (S)-N-(3-(1-((4-fluorophenyl)amino)-1-oxopropan-2-yl)bicyclo[1.1.1]pentan-1-yl)-6-(trifluoromethyl)picolinamide]",34.8
12,"CC(C(=O)Nc1ccc(F)cc1)C12CC(NC(=O)c3cc4ccccc4cn3)(C1)C2 (centres unmarked) [Example 144, N-[3-[2-(4-fluoroanilino)-1-methyl-2-oxo-ethyl]-1-bicyclo[1.1.1]pentanyl]isoquinolin-2-ium-3-carboxamide]",463
13,"C[C@H](C(=O)Nc1ccc(F)cc1)C12CC(NC(=O)OC(C)(C)C)(C1)C2 (single isomer, unassigned) [Example 32]",115
14,"CC(C(=O)Nc1ccc(Cl)nc1)C12CC(NC(=O)c3cccc(Cl)c3)(C1)C2 (single isomer, unassigned) [Example 16, 3-chloro-N-(3-(1-((6-chloropyridin-3-yl)amino)-1-oxopropan-2-yl)bicyclo[1.1.1]pentan-1-yl)benzamide]",183

# More lines, now with the values ahead:
row,IC50 [nM],SMILES
1,276,"O=C(NC1(C23CC(NC(=O)c4nc(C5CC5)no4)(C2)C3)CC1)c1ccc(F)cc1 [Example 29, 3-cyclopropyl-N-(3-(1-(4-fluorobenzamido)cyclopropyl)bicyclo[1.1.1]pentan-1-yl)-1,2,4-oxadiazole-5-carboxamide]"
2,252,"Cc1ccc(C(=O)NC23CC(C(C)C(=O)Nc4ccc(F)cc4)(C2)C3)cn1 (centres unmarked) [Example 132, N-[3-[2-(4-fluoroanilino)-1-methyl-2-oxo-ethyl]-1-bicyclo[1.1.1]pentanyl]-6-methyl-pyridin-1-ium-3-carboxamide]"
3,30.3,"C[C@H](C(=O)Nc1ccc(F)cc1)C12CC(NC(=O)Nc3ccc(F)c(F)c3)(C1)C2 [Example 82, (S)-2-(3-(3-(3,4-difluorophenyl)ureido)bicyclo[1.1.1]pentan-1-yl)-N-(4-fluorophenyl)propanamide]"
4,104,"O=C(NC1(C23CC(NC(=O)c4cc(C(F)F)ccn4)(C2)C3)CC1)c1ccc(F)cc1 [Example 27, 4-(difluoromethyl)-N-(3-(1-(4-fluorobenzamido)cyclopropyl)bicyclo[1.1.1]pentan-1-yl)picolinamide]"
5,2,"C[C@@H](C(=O)Nc1ccc(F)cc1)C12CC(NC(=O)c3cccc(Cl)c3F)(C1)C2 [Example 38, 3-chloro-2-fluoro-N-[3-[(1R)-2-(4-fluoroanilino)-1-methyl-2-oxo-ethyl]-1-bicyclo[1.1.1]pentanyl]benzamide]"
6,15.4,"C[C@H](C(=O)Nc1ccc(F)cc1)C12CC(NC(=O)Nc3cccc(Cl)c3)(C1)C2 [Example 81, (S)-2-(3-(3-(3-chlorophenyl)ureido)bicyclo [1.1.1]pentan-1-yl)-N-(4-fluorophenyl)propanamide]"
7,415,"CCc1cc(C(=O)NC23CC(C(C)C(=O)Nc4ccc(F)cc4)(C2)C3)n(C)n1 (centres unmarked) [Example 141, 5-ethyl-N-[3-[2-(4-fluoroanilino)-1-methyl-2-oxo-ethyl]-1-bicyclo[1.1.1]pentanyl]-2-methyl-pyrazole-3-carboxamide]"
8,69.2,"CC(C(=O)Nc1ccc(F)cc1)C12CC(NC(=O)c3cc4ccccn4c3)(C1)C2 (centres unmarked) [Example 116, N-[3-[2-(4-fluoroanilino)-1-methyl-2-oxo-ethyl]-1-bicyclo[1.1.1]pentanyl]indolizine-2-carboxamide]"
9,260,"C[C@H](C(=O)Nc1ccc(F)c(F)c1)C12CC(NC(=O)c3ccc(Cl)c(Cl)c3)(C1)C2 [Example 97, (S)-3,4-dichloro-N-(3-(1-((3,4-difluorophenyl)amino)-1-oxopropan-2-yl)bicyclo[1.1.1]pentan-1-yl)benzamide]"
